Test results from BindingDB's records for doi:10.1021/jm00129a004 (Bristol Myers Squibb, 1989).

Target: HMG-CoA reductase (Rattus norvegicus)
Experiment: In vitro inhibition of rat liver microsomal HMG-CoA reductase activity

SMILES | IC50 [nM]
Cn1nnnc1C(/C=C/[C@H]1C[C@H](O)CC(=O)O1)=C(c1ccc(F)cc1)c1ccc(F)cc1 | 19
Cn1nnnc1C(/C=C/[C@@H]1C[C@@H](O)CC(=O)O1)=C(c1ccc(F)cc1)c1ccc(F)cc1 [6-[4,4-Bis-(4-fluoro-phenyl)-3-(1-methyl-1H-tetrazol-5-yl)-buta-1,3-dienyl]-4-hydroxy-tetrahydro-pyran-2-one (BMY 22089)] | 43
